Assays:
miR16-1 = experiment: Accumulation of miR16-1 in mesenchymal stem cells by RT-qPCR; type: cell-based, human; conditions: 10 μM for 3 h, MSCs from three patients, normalized to PPIA; FIG. 16
Experimental: The mesenchymal stem cells were treated with 10 μM of miPEP//15a-16-1-TAT, treated with 10 μM of control peptide (ScmiPEP//21-1) or untreated (NT) for 3 hours. The amount of miR16-1 precursor in cells has been measured by quantitative RT-PCR. The measurement of the amount of miR16-1 precursor was normalized with respect to the PPIA household gene. Analyzes and statistics were performed with the Mann-Withney test (p-value: * p<0.05; ** p<0.01 and *** p<0.001).
The effect of miPEP 15a-16-1 on miR16-1 accumulation was analyzed in mesenchymal stem cells (MSCs). The experiments were carried out with a fragment of 10 amino acids respectively corresponding to the N-terminal portion of the miPEP 15a-16-1 (=fragment miPEP//15 a-16-1).
MSCs from three different patients were treated with 10 μM of miPEP//15a-16-1 fused to TAT peptide (miPEP//15a-16-1-TAT) for 3 h, then the amount of miR16-1 was measured by RT-qPCR.
Peptides were synthesized by Smartbioscience and dissolved at 2 mM in water.
The MSCs were seeded in wells of 12-well plates at 72,900 cells per well under 1 mL of PROLIF medium. The cells were then incubated for 72 h at 37° C. in a humid atmosphere with 5% CO2. […]
The amount of miRNAs precursors in cells treated or not treated with miPEP was evaluated by quantitative RT-PCR with the SsoFast EvagGreen kit. […] PPIA was used as a reference gene to normalize quantitative RT-PCR. […]

mesenchymal stem cells = experiment: Expression of osteoblast marker genes (iBSP, PTHR1, STMN2, OSTERIX) in mesenchymal stem cells by quantitative RT-PCR; type: cell-based, human; conditions: for osteoblast differentiation of mesenchymal stem cells: conclusion from increased expression of osteoblast marker genes
Experimental: The respective effects of miPEP 125a-1 and miPEP 145-2 on differentiation of mesenchymal stem cells were analyzed by measuring the expression of the iBSP, PTHR1, STMN2 and OSTERIX genes that correspond to markers of osteogenesis and of osteoblast differentiation (Chiellini et al., Biochem Biophys Res Commun, 374(1):64-8, 2008; Cordonnier et al., Tissue Eng, 17(3): 249-259, 2011).
The experiments were carried out with two fragments of 10 amino acids respectively corresponding to the N-terminal part of the miPEP 125a-1 (=miPEP//125a-1 fragment) and to the N-terminal part of the miPEP 145-2 (=fragment miPEP//145-2).
Mesenschymal stem cells from 4 different donors were cultured for 24 hours in PROLIF medium (αMEM+10% FCS) with or without miPEP//then for 3 days in DIF+BMP4 medium (αMEM+2% FCS+b-Glycerophosphate+Ascorbic acid+BMP4), DIF ΔBMP4 medium (αMEM+2% FCS+b-Glycerophosphate+Ascorbic acid) or PROLIF medium (αMEM+10% FCS), with or without miPEP//.
The expression of the iBSP, PTHR1, STMN2 and OSTERIX genes was then measured in mesenchymal stem cells cultured in the presence or absence of a miPEP*.
a. Composition of Culture Media • Proliferation medium (PROLIF): αMEM+10% FBS+1% P/S • Differentiation medium+BMP4 (DIF+BMP4): αMEM+2% FBS+1% P/S+βglycerophosphate (10 mM)+Ascorbic acid (50 μM)+BMP4 (50 ng/mL) • Differentiation medium without BMP4 (DIF ΔBMP4): αMEM+2% FBS+1% P/S+βglycerophosphate (10 mM)+Ascorbic acid (50 μM)
The miPEP//145-2 was synthesized by Smartbioscience and dissolved at 2 mM in water. The miPEP//125a-1 was synthesized by Smartbioscience and dissolved in water+0.1% ammonium.
The mesenchymal stem cells were seeded in 12-well plates at 70,000 cells/well in 1 mL of PROLIF medium. The cells were then incubated for 72 h at 37° C. in a humid atmosphere with 5% CO2.
After 72 hours of incubation, the cells were pre-treated with 100 μM of miPEP or “scramble” peptide diluted in PROLIF medium, and then incubated at 37° C. for 24 hours. In parallel, cells treated with PROLIF±water or water+0.1% ammonium medium were used as a negative control.
For 3 days, the cells were treated every 24 h with 100 μM of diluted miPEP either in DIF+BMP4 medium, or in DIF ΔBMP4 medium, or in PROLIF medium. Cells untreated or treated with water or water+0.1% ammonium were used as controls. The cells are incubated at 37° C.
After 3 days of treatment, the culture supernatants were removed, the cell mats were washed once with PBS, and then the plates were frozen at −80° C. until the total RNAs were extracted.
Total RNAs were extracted according to the supplier's recommendations with the miRNeasy microkit kit (Qiagen).
The RNAs were reverse transcribed with the High Capacity cDNA reverse transcription kit (Applied Biosystem). 600 ng of RNA were added to 2 μL of RT buffer (10×), 2 μL of Random primer (10×), 0.8 μL of dNTPs (25×), 0.5 μL of RNAse OUT (40 U/μL) and 1 μL of multiscribe reverse transcriptase (50 U/μL) in a total volume of 20 μL. The reverse transcription reaction was carried out at 25° C. for 10 min and then 42° C. for 2 h. The activity of the enzyme was stopped by incubating the mixture at 85° C. for 5 min.
The expression of osteoblastic transcription factors iBSP, PTHR1, STMN2 and OSTERIX was evaluated by quantitative RT-PCR with the SsoFast EvagGreen kit. For the RT-PCR reaction, 3 μL of […] diluted 1/8 were added to 1× of SsoFast EvaGreen, 10 μM of each primer and RNase free water in a final volume of 10 μL. The reaction was subjected to the following temperatures: 3 min pre-amplification at 95° C., 40 cycles of 10 sec at 95° C. and […] in a thermal cycler (CFX96 Real-time PCR detection system, Biorad). PPIA was used as a reference gene to normalize quantitative RT-PCR.
For all PCR reactions, two replicates were used for each biological sample.

Nude mice = experiment: In vivo bone formation by subcutaneous implantation of MSCs + HA/β-TCP biomaterial in Nude mice
Experimental: For D. and F. conditions, mice also received regular injections (once a week) of either miPEP//125a-1 (D) or scramble miPEP (F) during the study. After 4 weeks, the mice are euthanized and the grafts were then isolated, fixed, included in methacrylate, cut and treated for histology. The cuts were scanned (NDPview) and bone formation (dark grey) is evaluated (A to F) and is also quantified (G) using the Fiji image analysis software and the total area of new bone is reported to the total area of the cut
For G, the y-axis indicates the percentage of bone formation and the statistical analyzes were performed with the paired t-test (p-value: * p<0.05; ** p<0.01 and *** p<0.001).
All experiments on animals were done in accordance with directive 2010/63/EU and after validation of protocols by the Animal Ethics Committee (Toulouse, N: 86/809 EEC). A total of 6-8 mice was used per group. The cells cultured osteo-induced or not according to the methods described elsewhere (see Example 1), were then suspended for 1 to 2 h in the culture medium also containing granules of biomaterials in the ratio of 2×10^6 cells/50 mg of biomaterial. These biomaterials were biphasic inorganic calcium phosphate (BCP), composed of hydroxyapatite (HA) and beta-tricalcium phosphate (β-TCP) in a ratio of 20/80, ranging in size from 0.5 to 1 mm (sold by Biomatlante, Vigneux de Bretagne, France). The porosity of these biomaterials (% vol) was 75±5% of pores of which 70% (0 to 10 μm), 20% (10 to 100 μm) and 10% (100 to 300 μm). They were sterilized by autoclaving.
The biomaterial alone has been implanted as a negative control. Female Nude mice (RjOrl: NMRI-Foxnnul/Foxnlnu) (Laboratoires Janvier, Saint-Berthevin, France) are generally anesthetized by inhalationn of isoflurane. Two implants (cells+biomaterials) are subcutaneously placed in the back of the mice on each side of the spine. After 4 weeks, the treated animals are sacrificed. The implants are then removed and fixed in a buffered 4% formalin solution. Some groups of mice will also receive regular injections (once a week) during the study either of the miPEP//125a-1 (SEQ ID NO: 11 752) or the control miPEP (scramble ScmiPEP//125a, SEQ ID NO: 11 758).
These implants were then decalcified in a solution of 4.13% EDTA/0.2% PFA in PBS for 96 hours at 50° C. using an automatic microwave for demineralization (KOS Histostation, Milestone Med. Corp. USA). The samples were dehydrated in ethanol and then butanol baths in an automatic dehydration apparatus (MicromMicrotech, Lyon, France). The samples were then immersed in paraphine (Histowax, Histolab, Gottenburg, Sweden). Fine sections ([…]) were made using a microtome (Leica RM2255, Leica Biosystems, Nanterre, France). The sections were stained by the Masson trichrome technique and the collagen in light green.
The photos were obtained by a scan of each cut (NanoZoomer, Hamamatsu, Photonics, Hamamatsu City, Shizuoka, Japan) and observed virtually (NDP view, Hamamatsu). The histomorphometry of the images was done using the ImageJ software and the neoformed bone percentage was calculated by explant area. 3 to 4 sections per explant were analyzed and quantified.

[1] = DIF ΔBMP4 medium, 100 μM miPEP, 4 days, FIGS. 7 and 9
[2] = DIF ΔBMP4 medium, 100 μM miPEP, 4 days, FIGS. 8 and 10
[3] = DIF+BMP4 medium, 100 μM miPEP, 4 days, FIGS. 4 and 6

Q: How did the “amount of miR 16-1” value (miR16-1) turn out when “MFKHRFFYMH-YGRKKRRQRRR [miPEP//15a-16-1-TAT]” was run?
A: Its value is “increase”.

Q: Which results are given for “MSLCLSPSLT [miPEP//125a-1, fragment of 10 amino acids corresponding to the N-terminal part of the miPEP 125a-1]”?
A: expression of the STMN2 gene (mesenchymal stem cells; [1]): increases; expression of the OSTERIX gene (mesenchymal stem cells; [2]): increases; expression of the iBSP gene (mesenchymal stem cells; DIF+BMP4 medium, 100 μM miPEP, 4 days, FIG. 2): increases; expression of the PTHR1 gene (mesenchymal stem cells; DIF+BMP4 medium, 100 μM miPEP, 4 days, FIG. 3): increases; expression of the OSTERIX gene (mesenchymal stem cells; DIF+BMP4 medium, 100 μM miPEP, 4 days, FIG. 5): increases; expression of the STMN2 gene (mesenchymal stem cells; [3]): increases; osteoblast differentiation of mesenchymal stem cells (mesenchymal stem cells): promote osteoblast differentiation; bone formation, quantified neoformed bone (Nude mice; MSCs only pre-treated in vitro (C) versus untreated MSCs (B), p=0.0241, FIG. 17G): significantly higher; bone formation, quantified neoformed bone (Nude mice; MSCs pre-treated in culture (C) versus MSCs pre-treated with scramble miPEP (E), p=0.0499, FIG. 17G): significantly more bone formation; bone formation, quantified neoformed bone (Nude mice; MSCs pre-treated in vitro and then in vivo (D) versus untreated MSCs (B), p=0.0203, FIG. 17G): significantly higher; bone formation, qualitative (histology images) (Nude mice; MSCs pre-treated with miPEP (FIG. 17C-D) versus scramble miPEP (FIG. 17E-F), 4 weeks): greater; ability of human MSCs to form bone in vivo (Nude mice; MSCs previously treated in vitro): increased; effect of in vivo injection of the miPEP on the induction of bone formation (Nude mice; pre-treated MSCs plus weekly injection (D) versus MSCs only pre-treated (C), FIG. 17G): without consequence

Q: “MVGLNPPLWQ [miPEP//145-2, fragment of 10 amino acids corresponding to the N-terminal part of the miPEP 145-2]” was tested. Which “expression of the STMN2 gene” value (mesenchymal stem cells; [1]) did it give?
A: The value was “increases”.

Q: What about the “expression of the OSTERIX gene” value (mesenchymal stem cells; [2]) of the same substance?
A: The value was “increases”.

Q: What about the “expression of the STMN2 gene” value (mesenchymal stem cells; [3]) of the same substance?
A: Its value is “increases”.

Q: What about the “expression of the STMN2 gene” value (mesenchymal stem cells; PROLIF medium, 100 μM miPEP, 4 days, FIG. 11) of the same substance?
A: The value was “increases”.

Q: And the “osteoblast differentiation of mesenchymal stem cells” value (mesenchymal stem cells)?
A: The value was “promote osteoblast differentiation”.

Source: patent publication US11607443B2, “Therapeutic peptides” (UNIVERSITE TOULOUSE III-PAUL SABATIER, priority 2016, dated 2023)
